Measured values as given in PMC10248530, “Screening the Thermotoga maritima genome for new wide-spectrum nucleoside and nucleotide kinases” (The Journal of Biological Chemistry, 2023).

Experiments:
Type in all cases: biochemical
Tm(d)CMPK = biological target: T1, Tm(d)CMPK (Thermotoga maritima, UniProt Q9X1F6); assay: TLC or HPLC, […] h cascade; conditions: 1 mM NMP, 1.2 mM ATP, 5 mM acetyl phosphate with TmAcK (ATP regeneration), 10 mM MgCl2, pH 7.6, 37 °C
T1 construct: gene cmk; synthetic gene, full length, expressed in E. coli, 80 °C heat step and Ni-NTA; tag not described
T1 sequence (Q9X1F6 1-220): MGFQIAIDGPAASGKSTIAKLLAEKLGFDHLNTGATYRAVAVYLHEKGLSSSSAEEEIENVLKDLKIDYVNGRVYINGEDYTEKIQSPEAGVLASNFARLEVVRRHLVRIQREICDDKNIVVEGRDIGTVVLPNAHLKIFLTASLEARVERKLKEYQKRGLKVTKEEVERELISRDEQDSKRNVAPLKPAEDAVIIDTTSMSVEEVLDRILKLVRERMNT

TmUMPK = biological target: T2, TmUMPK (Thermotoga maritima, UniProt Q9X1U0); assay: HPLC conversion, […] h; conditions: 1 mM substrate, 1.2 mM ATP, 2 mM MgCl2, 50 mM KCl, 5 mM DTT, Tris pH 7.6, 37 °C
T2 construct: gene pyrH; synthetic gene, full length, expressed in E. coli, 80 °C heat step and Ni-NTA; tag not described
T2 sequence (Q9X1U0 1-231): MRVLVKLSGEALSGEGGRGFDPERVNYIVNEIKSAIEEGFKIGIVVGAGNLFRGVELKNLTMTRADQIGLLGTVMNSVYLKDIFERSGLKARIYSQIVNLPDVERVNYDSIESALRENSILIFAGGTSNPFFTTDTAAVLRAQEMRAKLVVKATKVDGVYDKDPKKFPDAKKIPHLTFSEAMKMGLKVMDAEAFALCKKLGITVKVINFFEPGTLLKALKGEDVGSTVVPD

TmAMPK = biological target: T3, TmAMPK (Thermotoga maritima, UniProt Q9X1I8); assay: TLC or HPLC, […] h cascade; conditions: 1 mM NMP, 1.2 mM ATP, 5 mM acetyl phosphate with TmAcK (ATP regeneration), 10 mM MgCl2, pH 7.6, 37 °C
T3 construct: gene adk; synthetic gene, full length, expressed in E. coli, 80 °C heat step and Ni-NTA; tag not described
T3 sequence (Q9X1I8 1-220): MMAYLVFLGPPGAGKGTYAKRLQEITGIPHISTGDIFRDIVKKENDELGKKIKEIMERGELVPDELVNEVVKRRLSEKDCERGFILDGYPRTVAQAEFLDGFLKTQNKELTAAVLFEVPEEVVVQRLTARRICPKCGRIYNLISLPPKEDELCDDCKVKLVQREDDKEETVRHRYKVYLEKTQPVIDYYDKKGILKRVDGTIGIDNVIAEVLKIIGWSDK

TmPK = biological target: T4, TmPK (Thermotoga maritima, UniProt Q9WY51); assay: HPLC conversion, […] h; conditions: 1 mM substrate, 1.2 mM phosphoenolpyruvate, 2 mM MgCl2, 50 mM KCl, pH 7.6, 37 °C
T4 construct: gene pyk; synthetic gene, full length, expressed in E. coli, 80 °C heat step and Ni-NTA; tag not described
T4 sequence (Q9WY51 1-466): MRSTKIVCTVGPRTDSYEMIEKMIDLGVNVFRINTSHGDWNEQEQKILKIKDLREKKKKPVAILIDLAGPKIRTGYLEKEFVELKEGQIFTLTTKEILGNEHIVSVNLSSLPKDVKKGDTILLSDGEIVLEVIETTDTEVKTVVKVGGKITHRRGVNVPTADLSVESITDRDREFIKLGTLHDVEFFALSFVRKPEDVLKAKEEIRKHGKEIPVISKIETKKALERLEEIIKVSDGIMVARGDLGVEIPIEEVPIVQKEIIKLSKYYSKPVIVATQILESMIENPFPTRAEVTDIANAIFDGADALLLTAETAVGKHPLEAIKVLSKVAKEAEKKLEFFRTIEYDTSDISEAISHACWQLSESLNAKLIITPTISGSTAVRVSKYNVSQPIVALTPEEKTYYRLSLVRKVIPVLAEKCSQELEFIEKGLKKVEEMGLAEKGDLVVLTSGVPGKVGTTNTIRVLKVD

TmTK = biological target: T5, TmTK (Thermotoga maritima, UniProt Q9WYN2); assay: HPLC conversion, […] h; conditions: 1 mM substrate, 1.2 mM ATP, 2 mM MgCl2, 50 mM KCl, 5 mM DTT, Tris pH 7.6, 37 °C
T5 construct: gene tdk; synthetic gene, full length, expressed in E. coli, 80 °C heat step and Ni-NTA; tag not described

TmRK = biological target: T6, TmRK (Thermotoga maritima, UniProt Q9X055); assay: HPLC conversion, […] h; conditions: 1 mM substrate, 1.2 mM ATP, 2 mM MgCl2, 50 mM KCl, 5 mM DTT, Tris pH 7.6, 37 °C
T6 construct: gene rbsK; synthetic gene, full length, expressed in E. coli, 80 °C heat step and Ni-NTA; tag not described; PfkB family
T6 sequence (Q9X055 1-299): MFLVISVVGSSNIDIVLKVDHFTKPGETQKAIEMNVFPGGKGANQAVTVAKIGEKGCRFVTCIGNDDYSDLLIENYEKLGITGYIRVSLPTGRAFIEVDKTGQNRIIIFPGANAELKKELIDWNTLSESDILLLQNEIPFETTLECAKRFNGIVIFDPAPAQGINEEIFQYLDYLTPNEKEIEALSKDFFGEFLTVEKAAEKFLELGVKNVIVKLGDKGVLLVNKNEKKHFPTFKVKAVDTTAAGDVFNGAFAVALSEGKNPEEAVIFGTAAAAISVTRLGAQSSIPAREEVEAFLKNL

TmAcK = biological target: T7, TmAcK (Thermotoga maritima, UniProt Q9WYB1); assay: HPLC conversion, […] h; conditions: 1 mM substrate, 1.2 mM acetyl phosphate, 2 mM MgCl2, 50 mM KCl, pH 7.6, 37 °C
T7 construct: gene ackA; synthetic gene, full length, expressed in E. coli, 80 °C heat step and Ni-NTA; tag not described
T7 sequence (Q9WYB1 1-403): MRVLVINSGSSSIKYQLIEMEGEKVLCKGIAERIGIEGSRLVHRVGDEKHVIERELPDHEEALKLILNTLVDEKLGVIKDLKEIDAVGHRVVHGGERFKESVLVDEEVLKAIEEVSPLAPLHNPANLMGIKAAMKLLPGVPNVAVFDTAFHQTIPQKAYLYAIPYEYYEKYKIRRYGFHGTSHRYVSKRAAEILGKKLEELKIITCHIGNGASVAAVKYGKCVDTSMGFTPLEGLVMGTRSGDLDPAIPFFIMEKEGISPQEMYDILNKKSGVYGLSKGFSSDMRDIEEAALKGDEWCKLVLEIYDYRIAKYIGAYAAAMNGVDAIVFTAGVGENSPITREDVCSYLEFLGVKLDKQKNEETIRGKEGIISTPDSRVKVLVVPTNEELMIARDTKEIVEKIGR

TmGMPK = biological target: T8, TmGMPK (Thermotoga maritima, UniProt Q9X215); assay: TLC or HPLC, […] h cascade; conditions: 1 mM NMP, 1.2 mM ATP, 5 mM acetyl phosphate with TmAcK (ATP regeneration), 10 mM MgCl2, pH 7.6, 37 °C
T8 construct: gene gmk; synthetic gene, full length, expressed in E. coli, 80 °C heat step and Ni-NTA; tag not described
T8 sequence (Q9X215 1-207): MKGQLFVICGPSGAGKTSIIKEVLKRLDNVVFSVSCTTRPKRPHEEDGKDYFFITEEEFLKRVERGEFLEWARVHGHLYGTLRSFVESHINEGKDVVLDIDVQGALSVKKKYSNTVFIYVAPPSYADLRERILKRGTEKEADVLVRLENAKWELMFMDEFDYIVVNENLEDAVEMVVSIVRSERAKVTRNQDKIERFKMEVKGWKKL

T5 sequence (Q9WYN2 whole entry): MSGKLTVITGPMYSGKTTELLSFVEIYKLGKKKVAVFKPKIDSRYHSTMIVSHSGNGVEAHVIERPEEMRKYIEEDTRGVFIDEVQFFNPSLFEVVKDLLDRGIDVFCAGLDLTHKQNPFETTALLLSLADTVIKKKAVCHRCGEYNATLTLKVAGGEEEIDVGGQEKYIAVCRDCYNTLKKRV

Q: Which “TLC or HPLC, 19 h cascade” value (Tm(d)CMPK) does the source give for `Nc1ccn([C@@H]2O[C@H](COP(=O)(O)O)[C@@H](O)[C@@H]2O)c(=O)n1` [cytarabine phosphate] here?
A: Tm(d)CMPK converted the sugar-modified substrates araCMP, araGMP, and araUMP

Q: `Nc1ccn([C@@H]2O[C@H](COP(=O)(O)O)[C@@H](O)[C@H]2O)c(=O)n1` [cytidine 5′-monophosphate] was tested. Which “HPLC conversion, 19 h” value (TmUMPK) did it give?
A: TmUMPK which accepted all natural riboNMPs

Q: `Nc1nc(F)nc2c1ncn2[C@@H]1O[C@H](COP(=O)(O)O)[C@@H](O)[C@@H]1O` [fludarabine phosphate] was tested. Which “TLC or HPLC, 19 h cascade” value (TmAMPK) did it give?
A: For TmAMPK, NTP formation was observed for all AMP analogs

Q: Which “HPLC conversion, 19 h” value (TmPK) does the source give for `Nc1nc2c(ncn2[C@@H]2O[C@H](COP(=O)(O)OP(=O)(O)O)[C@@H](O)[C@H]2O)c(=O)[nH]1` [guanosine 5′-diphosphate] here?
A: TmPK and TmAcK accepted all natural riboNDPs and deoxyriboNDPs

Q: How did the “HPLC conversion, 19 h” value (TmTK) turn out when `Cc1cn([C@H]2C[C@H](O)[C@@H](CO)O2)c(=O)[nH]c1=O` [thymidine] was run?
A: TmTK accepted all deoxynucleosides and uridine

Q: And the “HPLC conversion, 19 h” value (TmRK)?
A: it phosphorylates the natural nucleosides thymidine and uridine

Q: How did the “HPLC conversion, 19 h” value (TmAcK) turn out when `O=c1ccn([C@@H]2O[C@H](COP(=O)(O)OP(=O)(O)O)[C@@H](O)[C@H]2O)c(=O)[nH]1` [uridine 5′-diphosphate] was run?
A: TmPK and TmAcK accepted all natural riboNDPs and deoxyriboNDPs

Q: `O=c1ccn([C@@H]2O[C@H](COP(=O)(O)O)[C@@H](O)[C@H]2O)c(=O)[nH]1` [uridine 5′-monophosphate] was tested. Which “HPLC conversion, 19 h” value (TmUMPK) did it give?
A: TmUMPK which accepted all natural riboNMPs

Q: With `O=c1ccn([C@@H]2O[C@H](CO)[C@@H](O)[C@H]2O)c(=O)[nH]1` [uridine] as the compound, how does the “HPLC conversion, 19 h” value (TmTK) read?
A: TmTK accepted all deoxynucleosides and uridine

Q: And the “HPLC conversion, 19 h” value (TmRK)?
A: it phosphorylates the natural nucleosides thymidine and uridine

Q: `Nc1ncnc2c1ncn2[C@@H]1O[C@H](COP(=O)(O)O)[C@@H](O)[C@@H]1O` [vidarabine phosphate] was tested. Which “TLC or HPLC, 19 h cascade” value (TmGMPK) did it give?
A: TmGMPK phosphorylated the sugar-modified NMPs araGMP, vidarabine phosphate, and araUMP
